The test has as its system P388 leukemia ip, CD2F1 mice, survival T/C. Nature of the test: NCI In Vivo Anticancer Drug Screen. Data for tumor model P388 Leukemia (intraperitoneal) in CD2F1 (CDF1) mice. The note with it: endpoint: median survival time, higher = longer survival. An outline of the steps:
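Mice carrying the transplanted tumor received test compound or vehicle. Survival was recorded in each group, and the value is the treated-group measurement divided by that of the vehicle-treated control group.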

The mark [1] stands for this setting: dose: 25.0 mg/kg/injection, schedule: Q01DX009 (ip), vehicle: Klucel (hydroxypropylcellulose) (HPC).
Setting [2] is: dose: 50.0 mg/kg/injection, schedule: Q01DX009 (ip), vehicle: Klucel (hydroxypropylcellulose) (HPC).
Where [3] appears, read: dose: 100.0 mg/kg/injection, schedule: Q01DX009 (ip), vehicle: Klucel (hydroxypropylcellulose) (HPC).
Setting [4] is: dose: 200.0 mg/kg/injection, schedule: Q01DX009 (ip), vehicle: Klucel (hydroxypropylcellulose) (HPC).
Setting [5] is: dose: 50.0 mg/kg/injection, schedule: Q01DX005 (ip), vehicle: Klucel (hydroxypropylcellulose) (HPC).
[6] abbreviates: dose: 100.0 mg/kg/injection, schedule: Q01DX005 (ip), vehicle: Klucel (hydroxypropylcellulose) (HPC).
[7] abbreviates: dose: 200.0 mg/kg/injection, schedule: Q01DX005 (ip), vehicle: Klucel (hydroxypropylcellulose) (HPC).
Where [8] appears, read: dose: 50.0 mg/kg/injection, schedule: Q01DX009 (ip), vehicle: saline.
Setting [9] is: dose: 100.0 mg/kg/injection, schedule: Q01DX009 (ip), vehicle: saline.
Where [10] appears, read: dose: 50.0 mg/kg/injection, schedule: Q01DX009 (ip), vehicle: suspension in saline.
Where [11] appears, read: dose: 100.0 mg/kg/injection, schedule: Q01DX009 (ip), vehicle: suspension in saline.
[12] abbreviates: dose: 200.0 mg/kg/injection, schedule: Q01DX009 (ip), vehicle: suspension in saline.
[13] abbreviates: dose: 60.0 mg/kg/injection, schedule: Q01DX005 (ip), vehicle: saline with Tween-80.
[14] abbreviates: dose: 120.0 mg/kg/injection, schedule: Q01DX005 (ip), vehicle: saline with Tween-80.
The mark [15] stands for this setting: dose: 240.0 mg/kg/injection, schedule: Q01DX005 (ip), vehicle: saline with Tween-80.
Setting [16] is: dose: 50.0 mg/kg/injection, schedule: Q01DX005 (ip), vehicle: saline with Tween-80.
Setting [17] is: dose: 100.0 mg/kg/injection, schedule: Q01DX005 (ip), vehicle: saline with Tween-80.
Setting [18] is: dose: 200.0 mg/kg/injection, schedule: Q01DX005 (ip), vehicle: saline with Tween-80.

Where “and” joins values, the source holds several entries; their conditions need not be identical. Identical values can stand only once. Inconclusive results and toxic doses are left out. Square brackets hold non-standard residues; d marks the D form. Peptide text beside a SMILES is read from it. * marks the point of attachment. Cbz = O=C(OCc1ccccc1)*; Nva = CCC[CH](N)C(=O)O

As to `c1ccc(CNc2nc(NCc3ccccc3)c3cn[nH]c3n2)cc1`, the T/C was 98 % of control under setting [1], 110 % of control under setting [2], 103 % of control under setting [3] and 100 % of control under setting [4].

On to `O=C1NC2(CCN(Cc3ccccc3)CC2)Nc2ccccc21`, for which the T/C under setting [5] is 99 % of control, the T/C under setting [6] is 99 % of control and the T/C under setting [7] is 97 % of control.

As for `c1ccc2c(NC3=NCCO3)c3ccccc3nc2c1`, the T/C is, setting by setting: (dose: 3.12 mg/kg/injection, schedule: Q01DX009 (ip), vehicle: Klucel (hydroxypropylcellulose) (HPC)) 95 % of control; (dose: 6.25 mg/kg/injection, schedule: Q01DX009 (ip), vehicle: Klucel (hydroxypropylcellulose) (HPC)) 95 % of control; (dose: 12.5 mg/kg/injection, schedule: Q01DX009 (ip), vehicle: Klucel (hydroxypropylcellulose) (HPC)) 103 % of control; under setting [1], 111 % of control.

In the case of `O=C(/C=C/c1ccc(OCC2CO2)cc1)c1cc2ccccc2nc1Cl` (configuration not stated), the T/C runs as follows: (dose: 100.0 mg/kg/injection, schedule: Q04DX002 (ip), vehicle: saline with Tween-80) 100 % of control; (dose: 200.0 mg/kg/injection, schedule: Q04DX002 (ip), vehicle: saline with Tween-80) 100 % of control; (dose: 400.0 mg/kg/injection, schedule: Q04DX002 (ip), vehicle: saline with Tween-80) 100 % of control.

As to `O=C1C(Cl)=C(N2CC2)C(=O)C(Cl)=C1N1CC1`, the T/C reads like this: (dose: 0.08 mg/kg/injection, schedule: Q01DX009 (ip), vehicle: saline with Tween-80) 105 % of control; (dose: 0.16 mg/kg/injection, schedule: Q01DX009 (ip), vehicle: saline with Tween-80) 112 % of control; (dose: 0.31 mg/kg/injection, schedule: Q01DX009 (ip), vehicle: saline with Tween-80) 122 % of control; (dose: 0.63 mg/kg/injection, schedule: Q01DX009 (ip), vehicle: saline with Tween-80) 124 % of control; (dose: 2.5 mg/kg/injection, schedule: Q01DX009 (ip), vehicle: saline with Tween-80) 155 % of control; (dose: 5.0 mg/kg/injection, schedule: Q01DX009 (ip), vehicle: saline with Tween-80) 155 % of control. In addition, the T/C (dose: 10.0 mg/kg/injection, schedule: Q01DX009 (ip), vehicle: saline with Tween-80) is 155 % of control.

As for `O=C(Cl)C=Cc1ccc([N+](=O)[O-])cc1` (mixture of isomers), the T/C was 104 % of control under setting [8] and 94 % of control under setting [9].

For the compound `O=C(O)C1NCCC1Oc1ccccc1` (configuration not stated), the T/C by setting is: under setting [5], 99 % of control; under setting [6], 104 % of control; under setting [7], 100 % of control.

In the case of `COc1cc2c(cc1OC)C1C(C(=O)O)c3ccc(OC)c(OC)c3C(=O)N1CC2` (configuration not stated), the T/C (dose: 50.0 mg/kg/injection, schedule: Q04DX003 (ip), vehicle: distilled water + Tween-80) was 100 % of control; the T/C (dose: 100.0 mg/kg/injection, schedule: Q04DX003 (ip), vehicle: distilled water + Tween-80) was 101 % of control; the T/C (dose: 200.0 mg/kg/injection, schedule: Q04DX003 (ip), vehicle: distilled water + Tween-80) is 103 % of control; the T/C (dose: 400.0 mg/kg/injection, schedule: Q04DX003 (ip), vehicle: distilled water + Tween-80) was 89 % of control.

On to `CC1(C)NC(=O)c2c(-c3ccccc3)c(-c3ccccc3)n(-c3ccccc3)c2N1`, for which the T/C is, setting by setting: under setting [10], 96 % of control; under setting [11], 98 % of control; under setting [12], 101 % of control.

In the case of `NC1C=NNC1=O` (configuration not stated), the T/C reads like this: under setting [13], 110 % of control; under setting [14], 116 % of control; under setting [15], 116 % of control.

With `Cc1cccc(N2CCN(c3ccc4nonc4c3[N+](=O)[O-])CC2)c1`, the T/C under setting [10] is 98 % of control; the T/C under setting [11] was 92 % of control and 95 % of control; the T/C under setting [12] was 89 % of control and 90 % of control.

Consider `Cc1o[nH]c(=O)c1C`, for which the T/C reads like this: (dose: 100.0 mg/kg/injection, schedule: Q01DX009 (ip), vehicle: saline with Tween-80) 100 % of control; (dose: 200.0 mg/kg/injection, schedule: Q01DX009 (ip), vehicle: saline with Tween-80) 100 % of control; (dose: 400.0 mg/kg/injection, schedule: Q01DX009 (ip), vehicle: saline with Tween-80) 100 % of control.

For `CC(C)OCc1cccc2ccnc(COC(C)C)c12`, the T/C (dose: 100.0 mg/kg/injection, schedule: Q01DX001 (ip), vehicle: saline) is 102 % of control; the T/C (dose: 200.0 mg/kg/injection, schedule: Q01DX001 (ip), vehicle: saline) was 100 % of control; the T/C (dose: 400.0 mg/kg/injection, schedule: Q01DX001 (ip), vehicle: saline) was 95 % of control.

Consider `CCOC(=O)C1=CC2CCOC2O1` (configuration not stated), for which the T/C is, setting by setting: under setting [13], 95 % of control; under setting [14], 95 % of control; under setting [15], 101 % of control.

Consider `Cn1cnc2n[nH]nc2c1=O`, for which the T/C was 105 % of control under setting [2], 95 % of control under setting [3] and 100 % of control under setting [4].

On to `CN(c1ccccc1)C(C#N)CC(C)(C)C` (configuration not stated), for which the T/C was 98 % of control under setting [5] and 107 % of control under setting [6].

Take `OC(COc1c2ccccc2nc2ccccc12)CN1CCN(c2cccc(Cl)c2)CC1` (configuration not stated): the T/C is 90 % of control under setting [16], 88 % of control under setting [17] and 90 % of control under setting [18].

On to `CCCNCCNc1ccc(NCCNCCC)c2c1C(=O)c1ccccc1C2=O`, for which the T/C was 104 % of control (dose: 4.0 mg/kg/injection, schedule: Q01DX009 (ip), vehicle: acid diluted with saline); 112 % of control (dose: 8.0 mg/kg/injection, schedule: Q01DX009 (ip), vehicle: acid diluted with saline); 120 % of control (dose: 12.5 mg/kg/injection, schedule: Q01DX009 (ip), vehicle: distilled water + Tween-80); 120 % of control (dose: 16.0 mg/kg/injection, schedule: Q01DX009 (ip), vehicle: acid diluted with saline); 118 % of control (dose: 25.0 mg/kg/injection, schedule: Q01DX009 (ip), vehicle: distilled water + Tween-80); 112 % of control (dose: 32.0 mg/kg/injection, schedule: Q01DX009 (ip), vehicle: acid diluted with saline). Besides, the T/C (dose: 100.0 mg/kg/injection, schedule: Q01DX009 (ip), vehicle: distilled water + Tween-80) was 124 % of control.

On to `C/C(=N\N=N\c1ccc(C)s1)c1ccccc1`, for which the T/C (dose: 50.0 mg/kg/injection, schedule: Q01DX005 (ip), vehicle: Klucel + Tween-80) is 105 % of control; the T/C (dose: 100.0 mg/kg/injection, schedule: Q01DX005 (ip), vehicle: Klucel + Tween-80) was 105 % of control; the T/C (dose: 200.0 mg/kg/injection, schedule: Q01DX005 (ip), vehicle: Klucel + Tween-80) is 97 % of control.

For `Cn1c2c(c(=O)c3cc(O)ccc31)CC(C(C)(C)O)O2` (configuration not stated), the T/C was 104 % of control under setting [5], 105 % of control under setting [6] and 104 % of control under setting [7].

As for `COc1cc(C(NC(=O)N2C(=O)C=CC2=O)NC(=O)N2C(=O)C=CC2=O)ccc1O`, the T/C under setting [16] is 106 % of control, the T/C under setting [17] was 100 % of control and the T/C under setting [18] is 100 % of control.

Turning to `CC(CC1(c2ccccc2)C(=O)NC(=O)NC1=O)OC(=O)c1ccc([N+](=O)[O-])cc1` (configuration not stated), the T/C runs as follows: under setting [2], 103 % of control; under setting [3], 100 % of control; under setting [4], 99 % of control.

As for `C[CH2][Sn]=[O].c1cc[c]([Ge]([c]2ccccc2)[c]2ccccc2)cc1`, the T/C (dose: 25.0 mg/kg/injection, schedule: Q01DX009 (ip), vehicle: saline) was 96 % of control; the T/C under setting [8] was 88 % of control and 93 % of control and 96 % of control; the T/C under setting [9] is 101 % of control and 88 % of control; the T/C (dose: 200.0 mg/kg/injection, schedule: Q01DX009 (ip), vehicle: saline) was 121 % of control and 88 % of control and 96 % of control.

Turning to `CCCC(NC(=O)OCc1ccccc1)C(=O)NC(Cc1ccccc1)C(=O)O` (configuration not stated) (Cbz-[Nva]-Phe-OH; configuration not given here), the T/C is, setting by setting: under setting [5], 108 % of control; under setting [6], 106 % of control; under setting [7], 100 % of control.

(Values after PubChem BioAssay AID330 (DTP/NCI, 2004).)
